Laboratory results as given in US20120184542A1, “PYRIDO PYRIMIDINES” (priority 2011, published 2012).

Columns and labels:
[1] = biological target: T1, Human DYRK1B (Homo sapiens, UniProt Q9Y463); experiment: DYRK1B Kinase TR-FRET (IMAP-Tb) Assay; format: biochemical; conditions: for inhibition at 10 µM: read-out: % inhibition of DYRK1B at 10 μM test compound concentration; for IC50: TR-FRET (IMAP-Tb), ATP 70 μM, 37° C. 60 minutes, read-out: Enzyme IC50 (μM) DYRK1B
T1 construct: purchased Invitrogen PR8350B (former PV4649)
T1 sequence (Q9Y463 whole entry): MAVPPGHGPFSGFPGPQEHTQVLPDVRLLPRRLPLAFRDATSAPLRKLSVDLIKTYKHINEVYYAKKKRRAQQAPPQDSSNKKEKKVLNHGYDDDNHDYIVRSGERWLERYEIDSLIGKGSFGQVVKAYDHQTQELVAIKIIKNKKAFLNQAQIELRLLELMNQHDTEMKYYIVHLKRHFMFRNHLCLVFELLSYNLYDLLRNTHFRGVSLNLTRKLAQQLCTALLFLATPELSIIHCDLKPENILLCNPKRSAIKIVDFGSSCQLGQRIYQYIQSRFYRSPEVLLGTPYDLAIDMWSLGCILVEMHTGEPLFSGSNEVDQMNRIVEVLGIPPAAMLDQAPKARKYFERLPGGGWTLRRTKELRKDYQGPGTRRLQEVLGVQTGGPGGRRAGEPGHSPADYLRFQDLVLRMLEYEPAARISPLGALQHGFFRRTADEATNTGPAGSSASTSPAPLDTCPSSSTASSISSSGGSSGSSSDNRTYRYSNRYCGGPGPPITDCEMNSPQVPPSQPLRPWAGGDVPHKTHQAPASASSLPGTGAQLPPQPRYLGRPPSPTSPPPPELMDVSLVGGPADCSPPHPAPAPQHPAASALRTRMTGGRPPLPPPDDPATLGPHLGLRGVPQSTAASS

[2] = biological target: T2, Human DYRK1A (Homo sapiens, UniProt Q13627); experiment: DYRK1A Kinase TR-FRET (IMAP-Tb) Assay; format: biochemical; conditions: TR-FRET (IMAP-Tb); ATP 70 μM; 37° C. 60 minutes; read-out: Enzyme IC50 (μM) DYRK1A
T2 construct: purchased Invitrogen PV3997
Text: The kinase TR-FRET (IMAP-Tb) assay uses a fluorescence labeled substrate peptide in the kinase reaction. Upon phosphorylation by the kinase, phosphopeptide is produced, which will be detected by the binding solution provided in IMAP TR-FRET binding kit. After the completion of the kinase reaction, the reaction will be stopped by adding the binding solution containing terbium tracer. This tracer is immobilized on the surface of the IMAP beads, which also contain metal ions on the beads that bind to the phospho-groups of the products. Thus the phosphorylated product of the reaction can enter into close proximity to the tracer, producing resonance energy transfer. Due to the long lifetime of terbium (Tb) fluorescence the detection can be run in time resolved mode, which virtually eliminates fluorescence interference from assay components or compounds.
The TR-FRET signal measurement from this assay, given as an IC50 measurement, is a measure of a test compound's ability to interfere with the phosphorylation of the peptide substrate, that is it inhibits the phosphorylation of the substrate peptide by DYRK1A, and is thus a measure of the test compound's ability to inhibit the activity of DYRK1A.
• 1. Human DYRK1A: from Invitrogen. Part #PV3997 • 2. Substrate Peptide: […] • 3. IMAP TR-FRET IPP Explorer Kit: from Molecular Devices. Part #R8157 • 4. Kinase Assay Buffer (KAB): 10 mM HEPES pH 7.0, 50 mM NaCl, 5 mM MgCl2, 1 mM DTT, 1 mM NaVO4, 200 μg/mL BSA (0.02%) • 5. Assay Plate: Remp polypropylene clear 384-well microplate. […] Detection Plate: Costa black 384-well microplate.
• 1. Transfer 1.5 μL of 20× compound solution to each well of an assay plate. • 2. Add to each well 22.5 μL of KAB Buffer. • 3. Add to each well 3 μL of the solution of DYRK1A and ATP. […] Add to each well 3 μL of the substrate peptide. The assay concentration is 1.0 μM • 5. Incubate the assay plates at 37° C. for 60 minutes. • 6. Add 18 μL of Detection Solution (1:800 diluted Progress bead stock, 1:400 diluted Tb stock, 80% Buffer A, and 20% Buffer B) into each well of detection plates. • 7. Transfer 6 μL of assay solution from the assay plate to the detection plate. • 8. Shake detection plates for 30 minutes. • 9. Read plates in Envision with wavelength set at excitation 340 nm for Tb, emission 490 nm, and […].

| SMILES | inhibition at 10 µM [1] | IC50 [2] | IC50 [1] |
| --- | --- | --- | --- |
| CN(Cc1cccc(Cl)c1)C(=O)c1ccc(Cl)c(NC(=O)c2cc3cnc(N4CCCCC4)nc3[nH]c2=O)c1 [Example 64, 7-oxo-2-piperidin-1-yl-7,8-dihydro-pyrido[2,3-d]pyrimidine-6-carboxylic acid {2-chloro-5-[(3-chloro-benzyl)-methyl-carbamoyl]-phenyl}-amide] | 46.6% | 0.903 µM | – |
| COc1ncc2cc(C(=O)Nc3cc(C(=O)NCc4ccccn4)ccc3Cl)c(=O)[nH]c2n1 [Example 66, 2-Methoxy-7-oxo-7,8-dihydro-pyrido[2,3-d]pyrimidine-6-carboxylic acid {2-chloro-5-[(pyridin-2-ylmethyl)-carbamoyl]-phenyl}-amide] | – | 0.16 µM | 0.282 µM |
| COc1ncc2cc(C(=O)Nc3cc(C(=O)NCc4cccnc4)ccc3Cl)c(=O)[nH]c2n1 [Example 67, 2-Methoxy-7-oxo-7,8-dihydro-pyrido[2,3-d]pyrimidine-6-carboxylic acid {2-chloro-5-[(pyridin-3-ylmethyl)-carbamoyl]-phenyl}-amide] | – | 0.263 µM | 0.669 µM |
| COc1ncc2cc(C(=O)Nc3cc(C(=O)NCc4ccncc4)ccc3Cl)c(=O)[nH]c2n1 [Example 68, 2-Methoxy-7-oxo-7,8-dihydro-pyrido[2,3-d]pyrimidine-6-carboxylic acid {2-chloro-5-[(pyridin-4-ylmethyl)-carbamoyl]-phenyl}-amide] | – | 0.251 µM | 0.261 µM |
| COc1ncc2cc(C(=O)Nc3cc(C(=O)NCC(C)C)ccc3Cl)c(=O)[nH]c2n1 [Example 79, 2-Methoxy-7-oxo-7,8-dihydro-pyrido[2,3-d]pyrimidine-6-carboxylic acid (2-chloro-5-isobutylcarbamoyl-phenyl)-amide] | – | 0.779 µM | 1.52 µM |
| CCOC(=O)c1ccc(Cl)c(NC(=O)c2cc3cnc(OC)nc3[nH]c2=O)c1 [Example 82, 4-Chloro-3-[(2-methoxy-7-oxo-7,8-dihydro-pyrido[2,3-d]pyrimidine-6-carbonyl)-amino]-benzoic acid ethyl ester] | – | 0.463 µM | 1.11 µM |
| O=C(NCc1cccc(Cl)c1)c1ccc(Cl)c(NC(=O)c2cc3cnc(N4CCC(O)CC4)nc3[nH]c2=O)c1 [Example 92, 2-(4-Hydroxy-piperidin-1-yl)-7-oxo-7,8-dihydro-pyrido[2,3-d]pyrimidine-6-carboxylic acid [2-chloro-5-(3-chloro-benzylcarbamoyl)-phenyl]-amide] | – | 0.0202 µM | 0.035 µM |
| CC(C)(C)CNC(=O)c1ccc(Cl)c(NC(=O)c2cc3cnc(N4CCOCC4)nc3[nH]c2=O)c1 [Example 142, 2-Morpholin-4-yl-7-oxo-7,8-dihydro-pyrido[2,3-d]pyrimidine-6-carboxylic acid [2-chloro-5-(2,2-dimethyl-propylcarbamoyl)-phenyl]-amide] | 44% | 2.43 µM | – |
| O=C(NCc1cccc(Cl)c1)c1cc(NC(=O)c2cc3cnc(N4CCOCC4)nc3[nH]c2=O)c(Cl)cc1F [Example 144, 2-Morpholin-4-yl-7-oxo-7,8-dihydro-pyrido[2,3-d]pyrimidine-6-carboxylic acid [2-chloro-5-(3-chloro-benzylcarbamoyl)-4-fluoro-phenyl]-amide] | 23% | 0.205 µM | – |
| CC(C)(O)CNc1ncc2cc(C(=O)Nc3cc(C(=O)NC(CO)c4ccccc4)ccc3Cl)c(=O)[nH]c2n1 (stereo not shown) [Example 153, N-(2-Chloro-5-(2-hydroxy-1-phenylethylcarbamoyl)phenyl)-2-(2-hydroxy-2-methylpropylamino)-7-oxo-7,8-dihydropyrido[2,3-d]pyrimidine-6-carboxamide] | – | 0.0931 µM | 0.185 µM |
| CC(C)(O)CNc1ncc2cc(C(=O)Nc3cc(C(=O)NC(CCO)c4ccccc4)ccc3Cl)c(=O)[nH]c2n1 (stereo not shown) [Example 154, N-(2-Chloro-5-(3-hydroxy-1-phenylpropylcarbamoyl)phenyl)-2-(2-hydroxy-2-methylpropylamino)-7-oxo-7,8-dihydropyrido[2,3-d]pyrimidine-6-carboxamide] | – | 0.075 µM | 0.078 µM |
